Reference: patent publication US7396817B2, “Biologically active peptides comprising Isoleucyl-valyl-threonyl-asparaginyl-threonyl-threonine (IVTNTT)” (CMS Peptides Patent Holding Company Limited, priority 2003, dated 2008)
Marks after values point to notes of the source that are not given here. No end group written: not given here.

Experiments:
hepG 2 2.2.15 cell line = assay: Cytotoxicity of CMS017 on 2.2.15 cell cultures, MTT staining (maximum non-toxic concentration); assay type: cell-based; conditions: 2.2.15 cells, MTT staining on day 8
Experimental: (§1) a. Inhibitory effect of CMS017 on HBsAg and HBeAg at maximum non-toxic concentration in vitro 2.2.15 cells, growing at logarithmic phase, were harvested and re-suspended in MEM culture medium (containing 10% calf serum, […], and 100 U/ml streptomycin) as a 2×10^6/ml cell suspension. The suspension was inoculated into a 24-well cell culture plate with 1.5 ml per well, and incubated at 37° C., 5% CO2 for 48 hours. The test substance CMS017 was diluted and added to the 2.2.15 cultures to final concentrations of 0, 50, 100, 200, 400, 800 μg/ml, with 3 parallel samples per concentration. The cells were then incubated at 37° C., 5% CO2. The supernatant was refreshed on days 3 and 6. The cytotoxicity of CMS017 on 2.2.15 cell cultures was then observed with MTT staining on day 8, and the maximum non-toxic concentration of CMS017 was determined.

[1] = test system: T lymphocyte transformation; assay: ConA-induced T lymphocyte transformation of spleen cells from treated mice (MTT); assay type: in vivo, BALB/c mice; conditions: for stimulation index (X ± SD): BALB/c mice, spleen cells + ConA
Experimental: The day after the last test substance administration, the mice were sacrificed by cervical dislocation. The spleen was isolated aseptically and manually dispersed in cold D-Hank's solution using an injection needle. The dispersed cell suspension was further sieved through a 100 gauge 150 μm diameter stainless steel sieve. After centrifugation at 200 g for 10 minutes, the supernatant was discarded. […] The suspended cells were collected by centrifugation at 150 g for 10 minutes. […] The cells were then pelleted by centrifugation at 150 g for 10 minutes. […] The incubation was continued for 4 hours.

HBsAg = conditions: at 400 μg/ml, day 8, 2.2.15 cell supernatant
Experimental: as §1
(§2) The preparation and incubation of cell suspensions were repeated as above with the determined maximum non-toxic concentration of CMS017, and with parallel negative and positive controls (lamivudine with the same concentration as CMS017 was used as the positive control). On the 8th day, the titers of HBsAg and HBeAg in the cell culture supernatants were determined by ELISA^[1,2], using conditions described by the kit supplier. The inhibition percentage of each test substance was calculated as shown below. Inhibitory percentage (%)=(blank control−sample)/blank control×100 Cell survival percentage (%)=sample (A595−A650)/blank control (A595−A650)×100

HBeAg = conditions: at 400 μg/ml, day 8, 2.2.15 cell supernatant
Experimental: as §1, §2

HBV-DNA = assay: Inhibition of supernatant HBV-DNA in 2.2.15 cells (fluorescent quantitative PCR); conditions: for IC50 (HBV-DNA): 2.2.15 cell supernatant; for IC50 (HBV-DNA) / inhibitory percentage for supernatant HBV-DNA: day 8; for inhibitory percentage for supernatant HBV-DNA: at the concentration of 160 μg/ml
Experimental: (§3) Cell suspensions were prepared and incubated as described in Method 1 above. […] The culture media, with added test substance, were exchanged on days 3 and 6. On the 8th day, the supernatants of the cell cultures were harvested for the determination of HBV-DNA concentrations by fluorescent quantitative PCR^[3,4], using the method described by the kit supplier. The cultured cells were taken for analysis of the cytotoxicity of each test substance. The inhibitory percentage of the drug was calculated in the following manner: Inhibitory percentage (%)=(blank control−sample)/blank control×100 Cell survival percentage (%)=sample (A595−A650)/blank control (A595−A650)×100
(§4) TC50 was defined as the test substance concentration at which the percentage of surviving cells in the test group is 50% of that of the control group. IC50 was the test substance concentration at which the percentage of reduction of HBV-DNA concentration is 50% compared to control. These were determined by plotting the corresponding percentage against the test substance concentrations. The selection index (SI) was calculated as TC50/IC50. The bigger the value of SI, the higher the inhibition activity of test substance is and the less cytotoxic it is.

[2] = Cytotoxicity (cell survival, TC50) in the HBV-DNA experiment; assay type: cell-based; conditions: human, HepG2 2.2.15 cells, day 8, concentration at which cell survival is 50% of control
Experimental: as §3, §4

| Compound | maximum non-toxic concentration (hepG 2 2.2.15 cell line) [µg/mL] | stimulation index (X ± SD) ([1]; 50 μg/kg/day i.p. for 28 days) | effect on T lymphocyte transformation (in words) ([1]; 50 μg/kg/day, compared with the saline control group (P<0.05)) | stimulation index (X ± SD) ([1]; 200 μg/kg/day i.p. for 28 days) | Inhibition ratio of HBsAg (HBsAg) [%*] | Inhibition ratio of HBeAg (HBeAg) [%*] | IC50 (HBV-DNA) (HBV-DNA) [µg/mL] | SI (selection index, TC50/IC50) (HBV-DNA) | inhibitory percentage for supernatant HBV-DNA (HBV-DNA) | CC50 at 192 h [2] [µg/mL] |
| --- | --- | --- | --- | --- | --- | --- | --- | --- | --- | --- |
| IVTNTT [CMS017, L-Isoleucyl-L-valyl-L-threonyl-L-asparaginyl-L-threonyl-L-threonine] | 400 | 2.82 ± 0.41 | enhance T lymphocyte transformation | 2.65 ± 0.51 | 68.6 | 62.2 | 2.3 | 577.7 | 90.8% | 1330 |
| vidarabine monophosphate [Ara-AMP, reference compound] | – | – | – | – | – | – | 11.4 | 5.6 | 89.1%* | – |
| Nc1ccn([C@@H]2CS[C@H](CO)O2)c(=O)n1 [Lamivudine, lamivudine, reference compound] | – | – | – | – | 29.6 | 35.4 | – | – | – | – |
